# According to patent publication US12478605B2, “Biochanin a derivatives for treatment of BEST1-related retinopathies” (Universität Regensburg, priority 2020, dated 2025):
# Tested on: untransfected MDCKII cells
# Experiment: YFP-halide transport assay (I- influx), untransfected MDCKII controls
# Assay type: cell-based
# Settings: compound addition for 24 h, YFP quenching, FIG. 4B
# Procedure: Human hiPSC-RPE or MDCKII cells were transduced via lentivirus particles which were produced by co-transfecting HEK293T cells with the yellow fluorescence protein (YFPH148Q/I152L)-pLJM1 and helper plasmids pMD2.G and psPAX2 using the Ca^2+ phospate transfection method. After six weeks of cultivation in 96-well black microtiter plates, cells were incubated with 100 mM Cl^− containing solution and basal YFP fluorescence was measured in a Tecan microplate reader. Subsequently Cl^− was replaced with equimolar I^− and decrease of YFP fluorescence intensity was monitored for another 2 min in 10 sec intervals.
# To analyze BEST1-mediated anion transport in the cell lines generated in the previous examples, a well-established halide transport assay (Galietta et al., 2001) was adapted. […] Addition of I— leads to specific YFP quenching over time and changes of fluorescence intensities can be monitored on a plate reader. MDCKII cells were incubated with 100 mM Cl— containing solution and steady state YFP fluorescence signal intensities were measured after 6 minutes. Subsequently, Cl— was replaced by equimolar I— and anion permeability was monitored by decreasing YFP intensities as a result of BEST1-mediated I— influx in a time course up to 2 minutes (FIG. 2B). […]
smiles,measurement,value
"COc1ccc(-c2coc3cc(OC(C)=O)cc(OC(C)=O)c3c2=O)cc1 [Biochanin A diacetate, 3-(4-Methoxyphenyl)-4oxo-4H-chromene-5,7-diyl diacetate]",effect on kinetics of I- influx (anion transport activity),no or only little effect
